Experimental data published in article PMC4197335, “Cancer-Selective Targeting of the NF-κB Survival Pathway with GADD45β/MKK7 Inhibitors” (Cancer Cell, 2014).

Columns and labels:
plasma stability = type: in vitro ADME, human
Source text: Pharmacophore Model Building
The pharmacophore predictive
Broad- Panel Kinase Profiling
according to in-house protocols therein.
Pharmacokinetic Anal yses
In vitro pharmacok inetic assays were […]

tolerability in mice = assay: tolerability in mice
Source text: Table S6, related to Figure 7. Summary of the pharmacokinetic profiles of DTP3 and z-DTP2
PK Param enters Values Drug
Values denote means ± SD (n=3) or SEM (n=5), as indicated. MW , molecular

[1] = tested on: human mesenchymal stem cells (MSCs); assay: cells; conditions: read-out: IC50 (normal; MCSs); at 48 hr
Source text: (§1) Additional details are provided in Supplemental Experimental Procedures.
(§2) automated system (Becton Dick inson) and analyzed with FlowJo.

human BMSCs = assay: cells; conditions: read-out: IC50 (normal; BMSCs); at 48 hr
Source text: as §1, §2

human PBMCs = assay: cells; conditions: read-out: IC50 (normal; PBMCs); at 48 hr
Source text: as §1, §2

[2] = tested on: mouse lymph node (LN) cells; assay: cells; conditions: read-out: IC50 (normal; lymph node cells); at 48 hr
Source text: as §1, §2

[3] = tested on: CD138+ cells from WM patients; assay: cells; conditions: read-out: IC50 (WM; PCs (n= 2)); at 48 hr; mean ± SEM
Source text: as §1, §2

mouse splenocytes = assay: cells; conditions: read-out: IC50 (normal; splenocytes); at 48 hr
Source text: as §1, §2

[4] = tested on: CD138+ cells from MM patients; assay: cells; conditions: read-out: IC50 (MM; PCs (n = 8)); at 48 hr; mean ± SEM
Source text: as §1, §2

## CC(=O)N[C@H](Cc1ccc(O)cc1)C(=O)N[C@H](CCCNC(=N)N)C(=O)N[C@H](Cc1ccccc1)C(N)=O [DTP3, Ac-YRF-NH2]
Plasma stability
  plasma stability (human): > 48 h
Tolerability in mice; mice, osmotic pumps
  Toxicity - continual s.c. dosing (14.5 mg/kg/day for 28 days): no apparent toxicity
Tolerability in mice; mouse, in vivo, iv, 10 mg/kg
  Toxicity - single i.v. (10 mg/kg): no apparent toxicity
Tolerability in mice; mouse, in vivo, po, 100 mg/kg
  Toxicity - oral (100 mg/kg): no apparent toxicity
Tolerability in mice; mouse, in vivo, sc, 10 mg/kg
  Toxicity - single s.c. (10 mg/kg): no apparent toxicity
[1]
  IC50: > 100 µM
Human BMSCs
  IC50: > 100 µM
Human PBMCs
  IC50: > 100 µM
[2]
  IC50: > 100 µM
[3]
  IC50: > 10 µM
Mouse splenocytes
  IC50: > 100 µM
[4]
  IC50: 0.0282 ± 0.0001 µM
